Data on eleven compounds can be found in article PMC9656436, “Synthesis and Biological Evaluation of New Isoxazolyl Steroids as Anti-Prostate Cancer Agents” (International Journal of Molecular Sciences, 2022).

The structures appear in SMILES notation. Like-named read-outs stand apart in the source and are kept apart here.

The target of test [1] is T1, CYP17A1 (Homo sapiens, UniProt P05093).
T1 construct: recombinant human CYP17A1, purified
T1 sequence (P05093 1-508): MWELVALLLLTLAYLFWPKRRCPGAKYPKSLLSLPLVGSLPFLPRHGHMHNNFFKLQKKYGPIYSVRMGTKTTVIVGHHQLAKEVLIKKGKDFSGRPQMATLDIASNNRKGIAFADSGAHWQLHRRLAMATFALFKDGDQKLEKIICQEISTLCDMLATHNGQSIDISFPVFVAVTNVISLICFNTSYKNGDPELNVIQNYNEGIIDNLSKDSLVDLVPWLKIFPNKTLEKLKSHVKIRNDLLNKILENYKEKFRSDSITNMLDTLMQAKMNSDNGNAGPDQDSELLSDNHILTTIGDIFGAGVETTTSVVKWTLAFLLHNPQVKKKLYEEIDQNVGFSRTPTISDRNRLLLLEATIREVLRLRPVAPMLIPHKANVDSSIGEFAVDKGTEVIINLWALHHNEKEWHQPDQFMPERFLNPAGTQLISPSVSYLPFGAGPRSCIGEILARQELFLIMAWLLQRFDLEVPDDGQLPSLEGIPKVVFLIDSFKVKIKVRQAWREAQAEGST
Nature of the test: UV-Vis spectrophotometric titration (type I spectral response). It is filed as binding.

In test [2] the test system is DU145. Nature of the test: cells. Also noted: resazurin (Alamar blue) viability assay, resorufin fluorescence, GI50 from dose-response. The conditions noted are these: Homo sapiens, DU-145, 72 h; read-out: Viability after 72 h (GI50) DU145. The procedure: (§1) Cells were seeded into the 96-well tissue culture plates and, on the other day, compounds were added in different concentrations in duplicate for 72 h. Upon treatment, the resazurin solution (Sigma Aldrich, St. Louis, MI, USA) was added for 4 h, and then the fluorescence of resorufin was measured at 544 nm/590 nm (excitation/emission) using a Fluoroskan Ascent microplate reader (Labsystems, Budapest, Hungary). The GI50 value was calculated from the dose–response curves that resulted from the measurements using GraphPad Prism 5. Antiproliferative properties of all novel steroids were tested in two AR-positive prostate cancer cell lines (LNCaP and LAPC-4) and one AR-negative cell line (DU145) using the Alamar-blue assay after 72 h treatment.

The subject of test [3] is LAPC-4. The test is described as follows: cells. Also noted: resazurin (Alamar blue) viability assay, resorufin fluorescence, GI50 from dose-response. The settings on record: Homo sapiens, LAPC4, 72 h; read-out: Viability after 72 h (GI50) LAPC-4. The protocol: as §1
In test [4] the test system is LNCaP. The test is described as follows: cells. Also noted: resazurin (Alamar blue) viability assay, resorufin fluorescence, GI50 from dose-response. The settings on record: Homo sapiens, 72 h, read-out: Viability after 72 h (GI50) LNCaP. The protocol: as §1
Test [5] concerns T2, AR.
T2 construct: endogenous AR in ARE14 reporter cells (22Rv1-derived)
The test is described as follows: cells. Also noted: species or system ARE14; ARE-driven firefly luciferase reporter; AR transcriptional activity normalised to 1 nM R1881. The conditions noted are these: 24 h. The protocol: ARE14 cells were seeded (40,000 cells/well) into the Nunc™ MicroWell™ 96-well optical plate (Thermo Fisher Scientific, Waltham, MA, USA) on the second day. The cultivation medium was discarded, and the cells were washed with PBS. Analyzed compounds were dissolved in medium supplemented with CSS (agonist mode) or CSS with 1 nM R1881 (antagonist mode) and added to cells, including CSS and 1 nM R1881 controls. Upon 24 h of incubation, cells were washed with PBS and lysed for 10 min in a lysis buffer (10 mM Tris pH = 7.4, 2 mM DCTA, 1% nonidet P40, 2 mM DTT) at 37 °C. Next, a reaction buffer (20 mM tricine pH = 7.8, 1.07 mM MgSO4^.7H2O, 5 mM ATP, 9.4 mM luciferin) was added, and the luminescence was measured using a Tecan M200 Pro microplate reader ([…]). Based on the structural similarity of novel derivatives with galeterone and other published compounds (abiraterone, 3, and [6]), we tested the effect of our compounds towards the AR-transcriptional activity. Compounds were evaluated using an AR-dependent reporter cell line (ARE14) with a firefly-luciferase gene under the control of an androgen response element.

In test [6] the target is T3, CYP17A1 (Homo sapiens, UniProt P05093).
T3 construct: recombinant human CYP17A1, reconstituted system; with NADPH-cytochrome P450 reductase (rat), cytochrome b5 (human)
The test is described as follows: reconstituted […],20-lyase assay, HPLC, […] compound. It is filed as biochemical. The conditions noted are these: read-out: 17,20-Lyase Activity / Inhibition, %.
T3 sequence (P00388 2-678 partner, one chain of several): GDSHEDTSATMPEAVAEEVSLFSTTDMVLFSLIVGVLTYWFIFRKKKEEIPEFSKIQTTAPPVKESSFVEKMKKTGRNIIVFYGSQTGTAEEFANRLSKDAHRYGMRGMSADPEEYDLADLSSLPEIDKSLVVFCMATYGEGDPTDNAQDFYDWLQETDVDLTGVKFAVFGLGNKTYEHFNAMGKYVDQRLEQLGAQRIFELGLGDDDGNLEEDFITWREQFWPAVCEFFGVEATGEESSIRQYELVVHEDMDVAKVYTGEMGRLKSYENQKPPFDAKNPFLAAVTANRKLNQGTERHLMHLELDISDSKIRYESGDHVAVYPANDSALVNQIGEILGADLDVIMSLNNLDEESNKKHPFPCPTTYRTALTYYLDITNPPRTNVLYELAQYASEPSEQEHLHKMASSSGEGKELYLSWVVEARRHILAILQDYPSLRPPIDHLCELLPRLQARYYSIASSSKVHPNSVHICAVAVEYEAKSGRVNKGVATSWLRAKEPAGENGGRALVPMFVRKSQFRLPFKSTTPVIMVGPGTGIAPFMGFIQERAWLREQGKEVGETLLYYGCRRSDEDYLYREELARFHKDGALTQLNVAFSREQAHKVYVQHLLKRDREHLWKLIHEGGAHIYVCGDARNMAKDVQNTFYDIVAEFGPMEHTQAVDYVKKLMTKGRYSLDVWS
T3 sequence (P00167 2-134 partner, one chain of several): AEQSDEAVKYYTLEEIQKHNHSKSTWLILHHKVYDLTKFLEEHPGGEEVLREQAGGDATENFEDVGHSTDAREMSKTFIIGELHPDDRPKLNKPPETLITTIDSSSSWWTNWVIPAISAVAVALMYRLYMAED

[7] abbreviates: compound alone, vs 1 nM R1881 = 100%, read-out: AGONIST MODE 2 μM.
[8] abbreviates: compound alone, vs 1 nM R1881 = 100%, read-out: AGONIST MODE 10 μM.
[9] abbreviates: compound alone, vs 1 nM R1881 = 100%, read-out: AGONIST MODE 50 μM.
Where [10] appears, read: with 1 nM R1881, read-out: % of control remaining.

The term Kd denotes the free concentration of one partner at which half of the binding sites on the other are occupied at equilibrium, for simple one-to-one binding. A word on the GI50: it is the concentration at which growth is held to half of that of the control.

Regarding `C[C@]12CC[C@H]3[C@@H](CC=C4C[C@@H](O)CC[C@@]43C)[C@@H]1CC[C@@H]2Cc1ccno1` [24a, (17R)-(Isoxazol-5-ylmethyl)-androst-5-en-3β-ol], the Kd in test [1] (read-out: Kd) stood at 0.13 ± 0.02 µM.

`CCCCc1cc(C[C@H]2CC[C@H]3[C@@H]4CC=C5C[C@@H](O)CC[C@]5(C)[C@H]4CC[C@]23C)on1` [24d, 17β-((3-Butylisoxazol-5-yl)methyl)-androst-5-en-3β-ol]: in test [1] (read-out: Kd), the Kd was found to be 1.5 ± 0.21 µM. Besides, the GI50 in test [2], in test [3] and in test [4] was over 50 µM in each case. Further, the activity at 2 µM was found to be 17.8 ± 0.1% in test [5] (setting [7]) and 109 ± 12.1% in test [5] (setting [10]). Also, the activity at 10 µM in test [5] (setting [8]) stood at 21.1 ± 1.6%; in test [5] (setting [10]), 113 ± 21.1%. Further, the activity at 50 µM stood at 18.6 ± 3.6% in test [5] (setting [9]) and 104 ± 42.6% in test [5] (setting [10]).

For `C[C@]12CC[C@H]3[C@@H](CC=C4C[C@@H](O)CC[C@@]43C)[C@@H]1CC[C@@H]2Cc1cc(-c2ccccc2)no1` [24e, (17R)-17-((3-Phenylisoxazol-5-yl)methyl)-androst-5-en-3β-ol], the GI50 in test [2], in test [3] and in test [4] was over 50 µM throughout. Further, the values for the activity at 2 µM in test [5] (setting [7]) and in test [5] (setting [10]) were 14.7 ± 0.5% and 101 ± 9.5%, respectively. Moreover, the figures for the activity at 10 µM in test [5] (setting [8]) and in test [5] (setting [10]) were 14.2 ± 1.4% and 101 ± 13.6%, respectively. The activity at 50 µM in test [5] (setting [9]) is 12.8 ± 0.2%; in test [5] (setting [10]), 125 ± 27.4%.

`CC(C)(O)c1cc(C[C@H]2CC[C@H]3[C@@H]4CC=C5C[C@@H](O)CC[C@]5(C)[C@H]4CC[C@]23C)on1` [24j, (17R)-17-((3-(2-Hydroxypropan-2-yl)isoxazol-5-yl)methyl)-androst-5-en-3β-ol]: the Kd in test [1] (read-out: Kd) came out at 1.9 ± 0.23 µM. Moreover, the GI50 in test [2] is over 50 µM; in test [3] it was 18.2 ± 1.2 µM; in test [4], 25.8 ± 0.6 µM. The activity at 2 µM in test [5] (setting [7]) worked out at 14.4 ± 2.8%; in test [5] (setting [10]), 100 ± 13.5%. The activity at 10 µM in test [5] (setting [8]) came to 12.6 ± 0.1%; in test [5] (setting [10]) it was 84.8 ± 17.4%. For the same compound, the activity at 50 µM was 6.1 ± 1.5% in test [5] (setting [9]) and 21.6 ± 7.8% in test [5] (setting [10]).

Take `C[C@]12CC[C@H]3[C@@H](CC=C4C[C@@H](O)CC[C@@]43C)[C@@H]1CC[C@@H]2Cc1ccon1` [41a, (17R)-17-(Isoxazol-3-ylmethyl)-androst-5-en-3β-ol]: the inhibition at 50 µM in test [6] is 42.3%. Further, the GI50 in test [2], in test [3] and in test [4] was over 50 µM throughout. Further, the results for the activity at 2 µM in test [5] (setting [7]) and in test [5] (setting [10]) were 14.5 ± 1.5% and 98.2 ± 17.5%, respectively. For the same compound, the activity at 10 µM in test [5] (setting [8]) was 14.7 ± 0.1%; in test [5] (setting [10]), 73.7 ± 14.9%. Further, the activity at 50 µM in test [5] (setting [9]) was determined as 12.1 ± 1.3%; in test [5] (setting [10]), 50.8 ± 18.8%.

For the compound `C[C@]12CC[C@H]3[C@@H](CC=C4C[C@@H](O)CC[C@@]43C)[C@@H]1CC[C@@H]2Cc1cc(-c2cccnc2)on1` [41f, (17R)-17-((5-(Pyridin-3-yl)isoxazol-3-yl)methyl)-androst-5-en-3β-ol], the inhibition at 50 µM in test [6] is 41.1%.

In the case of `C[C@]12CC[C@H](O)CC1=CC[C@@H]1[C@@H]2CC[C@]2(C)C(n3cnc4ccccc43)=CC[C@@H]12` [Gal, galeterone], the GI50 in test [2] worked out at 47.6 ± 0.2 µM; in test [3], 28.6 ± 0.6 µM; in test [4], 46.8 ± 0.1 µM. In addition, the activity at 2 µM in test [5] (setting [7]) amounted to 15.4 ± 0.4%; in test [5] (setting [10]), 65.2 ± 6.1%. For the same compound, the activity at 10 µM in test [5] (setting [8]) is 10.8 ± 3.1%; in test [5] (setting [10]), 35.1 ± 3.3%. For the same compound, the activity at 50 µM in test [5] (setting [9]) was 2.4 ± 1.1%; in test [5] (setting [10]), 3 ± 1.8%.

As for `CC(=O)[C@H]1CC[C@H]2[C@@H]3CCC4=CC(=O)CC[C@]4(C)[C@H]3CC[C@]12C` [Progesterone], in test [1], the Kd was under 1 µM.

`C[C@]12CC[C@H]3[C@@H](CC=C4C[C@@H](O)CC[C@@]43C)[C@@H]1CC[C@@H]2CC(=O)/C(OC(=O)n1ccnc1)=C(\N)C1CC1` [compound 27, (E)-1-Amino-4-((17R)-3β-hydroxy-androst-5-en-17-yl)-1-cyclopropyl-3-oxobut-1-en-2-yl 1H-imidazole-1-carboxylate]: the GI50 in test [2], in test [3] and in test [4] was over 50 µM in each case. Moreover, the activity at 2 µM in test [5] (setting [7]) is 17.4 ± 0.5%; in test [5] (setting [10]), 89.7 ± 9.9%. The results for the activity at 10 µM in test [5] (setting [8]) and in test [5] (setting [10]) were 20.9 ± 2.9% and 62 ± 14.8%, respectively. The activity at 50 µM was 20.4 ± 4.2% in test [5] (setting [9]) and 63.5 ± 8% in test [5] (setting [10]).

`C[C@]12CC[C@H]3[C@@H](CC=C4C[C@@H](O)CC[C@@]43C)[C@@H]1CC[C@@H]2Cc1cc(CO)no1` [compound 32, (17R)-17-((3-(Hydroxymethyl)isoxazol-5-yl)methyl)-androst-5-en-3β-ol]: the Kd in test [1] (read-out: Kd) is 13.4 ± 2.38 µM. Besides, the GI50 in test [2] is over 50 µM; in test [3] it was 18.9 ± 7.2 µM; in test [4], 19.5 ± 0.1 µM. In addition, the results for the activity at 2 µM in test [5] (setting [7]) and in test [5] (setting [10]) were 14 ± 1.1% and 99.7 ± 17.4%, respectively. The figures for the activity at 10 µM in test [5] (setting [8]) and in test [5] (setting [10]) were 12.1 ± 2.7% and 87.8 ± 20.9%, respectively. The activity at 50 µM is 14.6 ± 0.5% in test [5] (setting [9]) and 31.1 ± 13.3% in test [5] (setting [10]).

For the compound `C[C@]12CC[C@H]3[C@@H](CC=C4C[C@@H](O)CC[C@@]43C)[C@@H]1CC[C@@H]2Cc1cc(CCl)no1` [compound 38, (17R)-17-((3-(Chloromethyl)isoxazol-5-yl)methyl)-androst-5-en-3β-ol], the GI50 in test [2], in test [3] and in test [4] was over 50 µM each time. Besides, the values for the activity at 2 µM in test [5] (setting [7]) and in test [5] (setting [10]) were 14.6 ± 1% and 96.1 ± 11.2%, respectively. The activity at 10 µM in test [5] (setting [8]) is 13 ± 0.4%; in test [5] (setting [10]) it was 92.6 ± 20.5%. The activity at 50 µM in test [5] (setting [9]) was determined as 7.3 ± 1.1%; in test [5] (setting [10]), 78.2 ± 24.9%.
